Here are results for 17 compounds from patent US12473304B2, “Heterocyclic PAD4 inhibitors” (BRISTOL-MYERS SQUIBB COMPANY, priority 2020, dated 2025).

The structures appear in SMILES notation.

human PAD4 (hPAD4), sequence (Q9UM07 whole entry): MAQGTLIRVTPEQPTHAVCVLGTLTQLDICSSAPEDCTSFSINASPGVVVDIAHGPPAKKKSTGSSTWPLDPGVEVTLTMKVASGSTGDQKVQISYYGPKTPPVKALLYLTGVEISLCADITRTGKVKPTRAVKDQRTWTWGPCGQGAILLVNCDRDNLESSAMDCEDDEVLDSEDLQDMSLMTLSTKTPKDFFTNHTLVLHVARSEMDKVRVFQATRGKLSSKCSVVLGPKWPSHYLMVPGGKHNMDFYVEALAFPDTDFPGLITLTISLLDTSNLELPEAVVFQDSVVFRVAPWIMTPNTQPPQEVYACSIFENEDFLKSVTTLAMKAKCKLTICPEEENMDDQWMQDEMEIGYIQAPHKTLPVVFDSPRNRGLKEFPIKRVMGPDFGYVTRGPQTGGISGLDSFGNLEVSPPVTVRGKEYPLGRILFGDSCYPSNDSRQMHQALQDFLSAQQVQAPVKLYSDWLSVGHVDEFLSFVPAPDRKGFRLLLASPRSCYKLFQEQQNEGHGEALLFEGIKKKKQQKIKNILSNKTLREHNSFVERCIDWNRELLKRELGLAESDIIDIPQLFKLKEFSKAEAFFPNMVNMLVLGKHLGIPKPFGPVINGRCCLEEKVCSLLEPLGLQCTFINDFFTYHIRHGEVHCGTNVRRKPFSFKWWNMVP

The target in the test is human PAD4 (hPAD4) (Homo sapiens (Human), UniProt Q9UM07). In words: RFMS Human PAD4 Functional Assay 1. Format: biochemical. To be noted: RFMS assay 1; 5 nM hPAD4, 250 μM BAEE substrate, 50 μM calcium, 37° C. Here is the method: RFMS Human PAD4 Functional Assay 1:
Compounds were solubilized in 100% DMSO to achieve all) mM compound concentration. Compound stock solutions were stored at RT. A series of dilutions were prepared in DMSO and mixed 8 times with 20 μL mixing volume. Final top concentration of compound in the assay is 50 μM. Final assay conditions were as follows: • Reaction volume: 26 μl • Assay buffer: 25 mM hepes, pH 7.5, 5 mM NaCl, 1 mM DTT, 0.2 mg/ml BSA, 0.01% CHAPS, 50 μM Calcium, and 5 μM TPEN • Final concentrations: 5 nM hPAD4 enzyme, 250 μM BASE, and 0.5% DMSO • Total incubation time: 30 mins compound and enzyme preincubation at 37° C., 90 min enzyme/substrate reaction, 30 min reaction with phenyl glyoxal at 37° C. • Stop solution: 40 μl 5% TCA in ACN
0.13 μL of compound solution was added to 13 μL of 10 nM PAD4 in assay buffer. After 30 min 13 μl of 500 μM of BAEE was added in 25 mM hepes, pH 7.5, 5 mM NaCl, 1 mM DTT, 0.2 mg/ml BSA, 0.01% CHAPS, 50 μM Calcium, 5 μM TPEN was added and the reaction incubated for 90 min at 37° C. The enzymatic reaction was quenched by addition of 15 μl of 6.1N TCA, 100% Final Concentration is 20%, 35 μl of 8.5 mM phenyl glyoxal (final concentration 4 mM) is then added and the reaction is incubated for 30 min at 37° C.
After 30 minutes the plates are spun down to remove all precipitate. The enzyme reaction was quenched with an equal volume of methanol containing internal standard (modified citrulline). Samples were loaded onto the Rapid Fire RF300 system (Agilent) wherein they were first sipped for 1000 ms and then directly loaded to a C18 separations cartridge using a mixture of acetonitrile containing 0.01% formic acid for 3000 ms desalting. The flow rate of the mobile phase was 1.5 ml/min. Once the samples were eluted from the cartridge, a mobile phase of acetonitrile containing 0.01% formic acid was used to move the samples into the mass spectrometer for 4000 ms at a flow rate of 1.25 ml/min/Sciex API5500 triple quadrupole mass spectrometer (Applied Biosystems) equipped with ESI was used to analyze the peptidyl citrulline and internal standard ions.
MRM transition of product and internal standard were monitored at m/z 424.5 to 350.4 and m/z 293 to 247 respectively. The dwell time for each transition was set at 200 ms, and the ESI voltage was used at 5500 with a source temperature of 400° C. Extracted ion peaks for each transition were integrated using the Rapid Fire Integrator software. Peak area of analyte was normalized with internal standard.).
As for `Cc1c(-c2cc3cccc(OC[C@H]4CCC(=O)N4)c3n2CC2CC2)nn2cc(C(=O)N3CCC[C@@H](N)C3)ccc12` [Example 586, (R)-5-(((2-(6-((R)-3-Aminopiperidine-1-carbonyl)-3-methylpyrazolo[1,5-a]pyridin-2-yl)-1-(cyclopropylmethyl)-1H-indol-7-yl)oxy)methyl)pyrrolidin-2-one], the concentration for half-maximal inhibition (IC50) stood at 150 nM.

For `COC1CCN(c2ccc3cc(-c4nn5cc(C(=O)N6CC7CCC6[C@@H]7N)ccc5c4C)n(CC4CC4)c3n2)CC1` (stereo partly drawn) [Example 76, ((7R)-7-Amino-2-azabicyclo[2.2.1]heptan-2-yl)(2-(1-(cyclopropylmethyl)-6-(4-methoxypiperidin-1-yl)-1H-pyrrolo[2,3-b]pyridin-2-yl)-3-methylpyrazolo[1,5-a]pyridin-6-yl)methanone], the IC50 was determined as 96 nM.

With `COc1cc(C(=O)N2C[C@H](N)C[C@@H](F)C2)cn2nc(-c3cc4ccc(-c5ccccc5C(N)=O)cc4n3CC3CC3)c(C)c12` [Example 223, 2-(2-{6-[(3R,5R)-3-Amino-5-fluoropiperidine-1-carbonyl]-4-methoxy-3-methylpyrazolo[1,5-a]pyridin-2-yl}-1-(cyclopropylmethyl)-1H-indol-6-yl)benzamide], the IC50 stood at 130 nM.

Consider `COc1cc(C(=O)N2C[C@H](N)C[C@@H](F)C2)cn2nc(-c3cc4cccc(OCCn5cc(N)cn5)c4n3CC3CC3)c(C)c12` [Example 557, (2-(7-(2-(4-Amino-1H-pyrazol-1-yl)ethoxy)-1-(cyclopropylmethyl)-1H-indol-2-yl)-4-methoxy-3-methylpyrazolo[1,5-a]pyridin-6-yl)((3R,5R)-3-amino-5-fluoropiperidin-1-yl)methanone], for which the IC50 stood at 10 nM.

With `COc1cc(C(=O)N2C[C@H](N)C[C@@H](F)C2)cn2nc(-c3cc4cccc(C5CCN(C(=O)[C@H]6CC[C@H](O)CC6)CC5)c4n3CC3CC3)c(C)c12` [Example 391, ((3R,5R)-3-Amino-5-fluoropiperidin-1-yl)(2-(1-(cyclopropylmethyl)-7-(1-((1r,4r)-4-hydroxycyclohexane-1-carbonyl)piperidin-4-yl)-1H-indol-2-yl)-4-methoxy-3-methylpyrazolo[1,5-a]pyridin-6-yl)methanone], the half-inhibitory concentration (IC50) came out at 10 nM.

In the case of `Cc1c(-c2cc3ccc(N4CC(F)(CO)C4)cc3n2CC2CC2)nn2cc(C(=O)N3CC4CCC3[C@@H]4N)ccc12` (stereo partly drawn) [Example 91, ((7R)-7-Amino-2-azabicyclo[2.2.1]heptan-2-yl)(2-(1-(cyclopropylmethyl)-6-(3-fluoro-3-(hydroxymethyl)azetidin-1-yl)-1H-indol-2-yl)-3-methylpyrazolo[1,5-a]pyridin-6-yl)methanone], the IC50 came out at 602 nM.

For `Cc1c(-c2cc3ccc(-c4ccc(C(N)=O)c(Cl)c4)cc3n2CC2CC2)oc2cc(C(=O)N3CC4CCC3[C@@H]4N)ccc12` (stereo partly drawn) [Example 183, 4-(2-(6-((7R)-7-Amino-2-azabicyclo[2.2.1]heptane-2-carbonyl)-3-methylbenzofuran-2-yl)-1-(cyclopropylmethyl)-1H-indol-6-yl)-2-chlorobenzamide], the 50% inhibitory concentration (IC50) is 88 nM.

In the case of `Cc1c(-c2cc3cc(F)cc(C4CCN(C(=O)C5CC(O)C5)CC4)c3n2CC2CC2)nn2cc(C(=O)N3CCC[C@@H](N)C3)ccc12` (mixture of isomers) [Example 492, (R)-(3-Aminopiperidin-1-yl)(2-(1-(cyclopropylmethyl)-5-fluoro-7-(1-(3-hydroxycyclobutane-1-carbonyl)piperidin-4-yl)-1H-indol-2-yl)-3-methylpyrazolo[1,5-a]pyridin-6-yl)methanone], the concentration for half-maximal inhibition (IC50) turned out to be 130 nM.

In the case of `CO[C@H](C)C(=O)N1CC(c2cccc3cc(-c4nn5cc(C(=O)N6C[C@H](N)C[C@@H](F)C6)ccc5c4C)n(CC4CC4)c23)C1` [Example 540, (R)-1-(3-(2-(6-((3R,5R)-3-Amino-5-fluoropiperidine-1-carbonyl)-3-methylpyrazolo[1,5-a]pyridin-2-yl)-1-(cyclopropylmethyl)-1H-indol-7-yl)azetidin-1-yl)-2-methoxypropan-1-one], the IC50 was 1100 nM.

As to `CO[C@H](C)C(=O)N1CCC(c2cccc3cc(-c4nn5cc(C(=O)N6C[C@H](N)C[C@@H](F)C6)cc(F)c5c4C)n(CC4CC4)c23)CC1` [Example 425, (R)-1-(4-(2-(6-((3R,5R)-3-Amino-5-fluoropiperidine-1-carbonyl)-4-fluoro-3-methylpyrazolo[1,5-a]pyridin-2-yl)-1-(cyclopropylmethyl)-1H-indol-7-yl)piperidin-1-yl)-2-methoxypropan-1-one], the IC50 was determined as 50 nM.

`Cc1c(-c2cc3ccc(N4CCC(N)CC4)cc3n2CC2CC2)oc2cc(C(=O)N3C[C@H](N)C[C@@H](F)C3)ccc12` [Example 202, ((3R,5R)-3-Amino-5-fluoropiperidin-1-yl)(2-(6-(4-aminopiperidin-1-yl)-1-(cyclopropylmethyl)-1H-indol-2-yl)-3-methylbenzofuran-6-yl)methanone]: the 50% inhibitory concentration (IC50) was determined as 1060 nM.

Consider `Cc1c(-c2cc3ccc(C(C)(O)C4CC4)nc3n2CC2CC2)nn2cc(C(=O)N3CC4CCC3[C@@H]4N)cc(F)c12` (stereo partly drawn) [Example 384, 1-(2-{6-[(7R)-7-Amino-2-azabicyclo[2.2.1]heptane-2-carbonyl]-4-fluoro-3-methylpyrazolo[1,5-a]pyridin-2-yl}-1-(cyclopropylmethyl)-1H-pyrrolo[2,3-b]pyridin-6-yl)-1-cyclopropylethan-1-ol], for which the IC50 worked out at 200 nM.

In the case of `Cc1c(-c2cc3ccc(C(C)(O)C(F)(F)F)nc3n2CC2CC2)nn2cc(C(=O)N3CC4CCC3[C@@H]4N)cc(F)c12` (stereo partly drawn) [Example 383, 2-(2-{6-[(7R)-7-Amino-2-azabicyclo[2.2.1]heptane-2-carbonyl]-4-fluoro-3-methylpyrazolo[1,5-a]pyridin-2-yl}-1-(cyclopropylmethyl)-1H-pyrrolo[2,3-b]pyridin-6-yl)-1,1,1-trifluoropropan-2-ol], the IC50 is 40 nM.

Take `COc1cc(C(=O)N2CCC[C@@H](N)C2)cn2nc(-c3cc4ccnc(OCC5CNC(=O)C5)c4n3CC3CC3)c(C)c12` (single isomer, unassigned; isomer 2) [Example 603]: the IC50 was 100 nM.

With `Cc1c(-c2cc3ccc(-c4ccc(O)c(F)c4)nc3n2CC2CC2)nn2cc(C(=O)N3CC4CCC3[C@@H]4N)cnc12` (stereo partly drawn) [Example 111, ((7R)-7-Amino-2-azabicyclo[2.2.1]heptan-2-yl)(2-(1-(cyclopropylmethyl)-6-(3-fluoro-4-hydroxyphenyl)-1H-pyrrolo[2,3-b]pyridin-2-yl)-3-methylpyrazolo[1,5-a]pyrimidin-6-yl)methanone], the half-maximal inhibitory concentration (IC50) was 15000 nM.

Take `COc1cc(C(=O)N2C[C@H](N)C[C@@H](F)C2)cn2nc(-c3cc4cccc(C5CN(C(=O)[C@H]6CC[C@@H](O)CC6)C5)c4n3CC3CC3)c(C)c12` [Example 519, ((3R,5R)-3-Amino-5-fluoropiperidin-1-yl)(2-(1-(cyclopropylmethyl)-7-(1-((1s,4s)-4-hydroxycyclohexane-1-carbonyl)azetidin-3-yl)-1H-indol-2-yl)-4-methoxy-3-methylpyrazolo[1,5-a]pyridin-6-yl)methanone]: the IC50 is 40 nM.

Turning to `Cc1c(-c2cc3ccc(N4CCOCC4=O)nc3n2CC2CC2)nn2cc(C(=O)N3CC4CCC3[C@@H]4N)ccc12` (stereo partly drawn) [Example 319, 4-(2-{6-[(7R)-7-Amino-2-azabicyclo[2.2.1]heptane-2-carbonyl]-3-methylpyrazolo[1,5-a]pyridin-2-yl}-1-(cyclopropylmethyl)-1H-pyrrolo[2,3-b]pyridin-6-yl)morpholin-3-one], the IC50 amounted to 50 nM.

Usually IC50 stands for the concentration that inhibits the measured activity by half.
